Earlier results as cited in publication PMC9316000, “Preclinical Drug Pharmacokinetic, Tissue Distribution and Excretion Profiles of the Novel Limonin Derivate HY-071085 as an Anti-Inflammatory and Analgesic Candidate in Rats and Beagle Dogs” (Pharmaceuticals, 2022).
Read-outs that look alike come from different tables or passages of the source.

Tests used:
[1] = design: method as in earlier work; details: Temp 25℃; cited from earlier work
[2] = design: method as in earlier work; details: Temp 25℃; cited from earlier work; remark: listed apart in the source
[3] = design: method as in earlier work; details: Temp 25℃, pH 7.0; cited from earlier work
[4] = design: method as in PMID 16435568; details: cited from earlier work

CC1(C)O[C@H]2CC(=O)OC[C@]23[C@H]2CC[C@@]4(C)[C@H](c5ccoc5)OC(=O)[C@H]5O[C@]54[C@]2(C)C(=O)C[C@@H]13 [Limonin]
logP [1]: 0.474
Intrinsic solubility [2]: 220 µg/mL
LogD [3]: 0.47
exposure of female rats relative to male rats ([4]; intravenous administration): three-fold higher
exposure of female rats relative to male rats ([4]; oral administration): 50 fold
